Columns and labels:
[1] = In vitro stability in saline; assay type: physicochemical; conditions: 37.0 °C, more than 48 h incubation
Description: (§1) The in vitro stability of ^64Cu-PSMA-CM was tested in 5% human serum albumin (HSA) and saline at 37.0 °C.
(§2) ^64Cu-PSMA-CM was incubated in saline or 5% human serum albumin (HSA) at 37 °C and the radiochemical purity was determined by radio-HPLC at different points in time (1 h, 4 h, 12 h, 24 h, and 48 h). For the stability in 5% HSA, 15 μL of mixture was taken out and precipitated by ethanol, filtered, and the supernatant was analyzed.

[2] = In vitro stability in 5% human serum albumin; assay type: in vitro ADME; conditions: 37.0 °C, more than 48 h incubation
Description: as §1, §2

[3] = Partition coefficient (octanol/PBS); assay type: physicochemical; conditions: octanol / PBS (0.1 M, pH 7.4)
Description: Amounts of 10 μL of ^64Cu-PSMA-CM in saline (0.37 MBq), 990 μL of phosphate-buffered saline (PBS, 0.1 M, pH 7.4), and 1mL of octanol were mixed in a tube. The mixture was vortexed for 3 min and centrifuged (3000 rpm × 5 min). Then, five samples (100 μL) from each phase were removed and the radioactivity was measured. The experiment was repeated three times. The partition coefficient value was calculated as below: P = (average of counts in octanol/average of counts in PBS), the value was expressed as log P ± SD.

PSMA (+) 22Rv1 cells = experiment: Cell uptake in 22Rv1 cells; assay type: cell-based, human; conditions: 120 min
Description: (§3) The 22Rv1 and PC-3 cell lines were plated on 24-well plates (2 × 10^5 cells/well). After incubating for 24 h, the medium was removed and washed with PBS (phosphate buffer saline, 0.01 M). Then, 500 μL medium with 74 KBq of ^64Cu-PSMA-CM was added to the well plates and co-incubated with cells at 37 °C for 10 min, 30 min, 60 min, and 120 min. The medium was then removed and the cells were washed twice with 1 mL of cold PBS. After that, cells were lysed with 1M NaOH, and then the NaOH solution was collected for analysis. For the blocking experiment, cells were co-incubated with ZJ-43 (1 µg/well), a PSMA inhibitor, for 120 min. Five samples of ^64Cu-PSMA-CM were taken out and were thought to be standard. The result was expressed as %IA/10^6 cells. For comparison, the cell uptake experiment of ^64Cu-PSMA-BCH in 22Rv1 cells was performed.

PSMA (−) PC-3 cells = experiment: Cell uptake in PC-3 cells; assay type: cell-based, human
Description: as §3

PSMA = molecular target: T1, PSMA (Homo sapiens, UniProt Q04609); experiment: Binding affinity to PSMA on 22Rv1 cells (dissociation constant); conditions: 2 h at 37 °C, one-site total model
T1 construct: endogenous in cells; host or cells: 22Rv1 cells
Description: The dissociation constant of ^64Cu-PSMA-CM was performed on 22Rv1 cells by adding different concentrations of ^64Cu-PSMA-CM (0.185–74 kBq/mL, 400 μL/well, 4 well/group) to the 24-well plate (2 × 10^5 cells/well). After incubation for 2 h at 37 °C, the medium was removed, the cells were washed twice with cold PBS and then lysed by 0.5 mL NaOH. The radioactivity of NaOH solution was measured and the dissociation constant was calculated using the one-site total model in Graph Pad software (Graph Pad prism 5). Similarly, the dissociation constant of ^64Cu-PSMA-CM was determined with the same protocol.

[4] = Pharmacokinetics in blood; assay type: in vivo, mice
Description: The pharmacokinetics profile of ^64Cu-PSMA-CM in blood circulation was tested by injecting 3.7 MBq of ^64Cu-PSMA-CM into Balb/c male mice (n = 4).
An amount of 3.7 MBq (250 μL) of ^64Cu-PSMA-CM was intravenously injected into Babl/c male mice (n = 4). Blood was collected from the ophthalmic artery at different time points, then the radioactivity of blood was weighed and measured by a γ-counter. An injection of 2.5 μL was taken out as standard. The results were expressed as the percentage of injected dose per gram (%ID/g).
A two-phase decay Equation (1) in Graph Pad software (Graph Pad prism 5) was used to serve as the two-compartment model which models biological process of the probe by fitting the ID%/g versus to time of ^64Cu-PMA-CM to describe blood pharmacokinetics. Ct = Ae^−αt + Be^−βt(1) where A and B are relevant constants, and α and β are rate constants which were used to calculate as ln(2)/α and ln(2)/β for the half-life of distribution phase and elimination phase, respectively.

[5] = tested on: mice bearing 22Rv1 tumors; experiment: Biodistribution in 22Rv1 tumor model mice; assay type: in vivo; conditions: for Biodistribution, Liver / Biodistribution, Spleen / Biodistribution, Blood / Biodistribution, Brain / Biodistribution, Heart / Biodistribution, Kidney / Biodistribution, LI (large intestine) / Biodistribution, Lung / Biodistribution, Muscle / Biodistribution, tumor: 22Rv1 male mice
Description: Twelve 22Rv1 tumor model mice were randomly divided into four groups and then ^64Cu-PSMA-CM (200 μL, 0.74 MBq/mouse) was injected via tail vein. […] Organs of interest including blood, heart, liver, spleen, lung, kidney, small intestine, large intestine, muscle, brain, and 22Rv1 tumor were collected. The organs were then weighed and measured for their radioactivity. Five samples of the 1% injection volume were taken out as a standard. The final uptake values of each organ were expressed as the percentage of injected dose per gram (%ID/g).

[6] = tested on: mice bearing 22Rv1 tumors; experiment: Micro-PET imaging in mice bearing 22Rv1 xenograft tumors; assay type: in vivo
Description: An amount of 200 μL of ^64Cu-PSMA-CM (9.32 MBq) was injected into mice bearing 22Rv1 xenograft tumors via tail vein. For blocking, the mice were co-injected with 50 μg of ZJ-43. Imaging was performed on Super Nova PET/CT (PINGSENG, Shanghai, China). The mice were anaesthetized with 3% (v/v) isoflurane, then fixed on the bed at 4 h, 8 h, 12 h, 24 h, and 48 h p.i. Micro-PET scans were conducted with continuous 1% (v/v) isoflurane for 15 min. The images of ^64Cu-PSMA-CM were obtained at different time points and SUV mean values of regions of interest (ROIs) over the heart, kidney, muscle, liver, and tumor were collected. The ratio of tumor-to-non-target organs was then calculated at different time points. To better assess its […] in vivo, a comparison with ^64Cu-PSMA-BCH (5.55 MBq/mouse) of micro-PET imaging was performed in mice bearing 22Rv1 tumor models at 4 h p.i., 12 h p.i., and 24 h p.i. The mean standardized uptake value (SUVmean) in each organ was calculated according to following Formula (2). SUV = Activity VOI (MBq/mL)/Injected dose (MBq) × Body weight (g)(2)

[7] = blood activity–time profile, in Figure 5
[8] = blood activity–time profile, in Figure 5, in h
[9] = blood, mice, 3.7 MBq i.v., two-phase decay fit

T1 sequence (Q04609 whole entry): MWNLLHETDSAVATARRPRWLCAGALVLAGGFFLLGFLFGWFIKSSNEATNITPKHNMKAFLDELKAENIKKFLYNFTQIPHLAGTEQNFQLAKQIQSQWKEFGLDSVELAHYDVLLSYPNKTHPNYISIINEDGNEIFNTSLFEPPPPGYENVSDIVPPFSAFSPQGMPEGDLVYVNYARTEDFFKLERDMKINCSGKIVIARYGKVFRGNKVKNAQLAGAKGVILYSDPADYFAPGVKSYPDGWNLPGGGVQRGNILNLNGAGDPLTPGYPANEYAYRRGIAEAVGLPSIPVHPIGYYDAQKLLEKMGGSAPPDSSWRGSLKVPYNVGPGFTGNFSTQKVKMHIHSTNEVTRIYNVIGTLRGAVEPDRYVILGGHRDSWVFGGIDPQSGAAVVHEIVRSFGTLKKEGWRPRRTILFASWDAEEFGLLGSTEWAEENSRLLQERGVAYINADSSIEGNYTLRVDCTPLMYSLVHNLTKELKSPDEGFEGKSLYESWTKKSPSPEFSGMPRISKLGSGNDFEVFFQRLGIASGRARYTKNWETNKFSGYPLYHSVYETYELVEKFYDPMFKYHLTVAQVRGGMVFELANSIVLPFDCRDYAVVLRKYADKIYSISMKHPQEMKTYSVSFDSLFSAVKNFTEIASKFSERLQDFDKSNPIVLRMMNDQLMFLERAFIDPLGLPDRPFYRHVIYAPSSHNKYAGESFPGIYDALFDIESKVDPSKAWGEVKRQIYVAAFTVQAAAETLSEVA

radiochemical purity (RCP) after incubation in saline [1]: over 95%
radiochemical purity (RCP) after incubation in 5% HSA [2]: over 95%
log P [3]: −2.25 ± 0.05
Kd (PSMA): 4.58 nM
KFast [4, 7]: 4.287
KSlow [4, 7]: 0.1765
Half Life (Fast) [4, 8]: 0.1617
Half Life (Slow) [4, 8]: 3.927
half-life of the distribution phase [4, 9]: 9.6 min
half-life of the elimination phase [4, 9]: 3.93 h
highest uptake in 22Rv1 tumor ([5]; 22Rv1-beared male mice, 24 h p.i.): 14.29 ± 1.44 %ID/g
uptake in kidneys ([5]; 22Rv1-beared male mice, within 1 h): 95.84 ± 3.33 %ID/g
Biodistribution, Liver [5]: 8.50±1.06 ID%/g
Biodistribution, Spleen [5]: 2.65±0.55 ID%/g
Biodistribution, Blood ([5]; 1 h): 16.95 ± 3.05 ID%/g
Biodistribution, Brain ([5]; 1 h): 0.69±0.07 ID%/g
Biodistribution, Heart ([5]; 1 h): 4.49±0.47 ID%/g
Biodistribution, Kidney ([5]; 1 h): 95.84±3.33 ID%/g
Biodistribution, LI (large intestine) ([5]; 1 h): 3.75±0.11 ID%/g
Biodistribution, Liver ([5]; 1 h): 5.34 ± 1.13 ID%/g
Biodistribution, Lung ([5]; 1 h): 9.91±0.43 ID%/g
Biodistribution, Muscle ([5]; 1 h): 1.15±0.09 ID%/g
Biodistribution, Spleen ([5]; 1 h): 8.48±3.35 ID%/g
Biodistribution, tumor ([5]; 1 h): 8.09±1.66 ID%/g
Biodistribution, Blood ([5]; 6 h): 12.33±2.83 ID%/g
Biodistribution, Brain ([5]; 6 h): 0.47±0.05 ID%/g
Biodistribution, Heart ([5]; 6 h): 4.16±0.62 ID%/g
Biodistribution, Kidney ([5]; 6 h): 26.78±0.69 ID%/g
Biodistribution, LI (large intestine) ([5]; 6 h): 2.85±0.06 ID%/g
Biodistribution, Liver ([5]; 6 h): 5.24±0.59 ID%/g
Biodistribution, Lung ([5]; 6 h): 8.47±1.45 ID%/g
Biodistribution, Muscle ([5]; 6 h): 1.22±0.25 ID%/g
Biodistribution, Spleen ([5]; 6 h): 4.63±1.13 ID%/g
Biodistribution, tumor ([5]; 6 h): 8.51±1.99 ID%/g
Biodistribution, Blood ([5]; 12 h): 5.41±0.94 ID%/g
Biodistribution, Brain ([5]; 12 h): 0.44±0.06 ID%/g
Biodistribution, Heart ([5]; 12 h): 1.96±0.35 ID%/g
Biodistribution, Kidney ([5]; 12 h): 14.19±1.40 ID%/g
Biodistribution, LI (large intestine) ([5]; 12 h): 4.32±0.69 ID%/g
Biodistribution, Lung ([5]; 12 h): 6.28±0.72 ID%/g
Biodistribution, Muscle ([5]; 12 h): 1.24±0.77 ID%/g
Biodistribution, tumor ([5]; 12 h): 14.29±1.44 ID%/g
Biodistribution, Blood ([5]; 24 h): 2.83±0.41 ID%/g
Biodistribution, Heart ([5]; 24 h): 0.95±0.21 ID%/g
Biodistribution, Kidney ([5]; 24 h): 8.92±0.41 ID%/g
Biodistribution, LI (large intestine) ([5]; 24 h): 2.81±0.35 ID%/g
Biodistribution, Liver ([5]; 24 h): 6.14±0.23 ID%/g
Biodistribution, Lung ([5]; 24 h): 5.60±0.23 ID%/g
Biodistribution, Spleen ([5]; 24 h): 2.31±0.26 ID%/g
Biodistribution, tumor ([5]; 24 h): 10.57±1.23 ID%/g
SUV mean value in 22Rv1 tumor (highest accumulation) ([6]; 24 h p.i.): 1.88 ± 0.04
uptake in tumors and kidneys when co-injected with excess ZJ-43 ([6]; ZJ-43 50 μg, p < 0.001): significantly decreased
SMILES: O=C([O-])CN1CCN(CC(=O)[O-])CCN(CC(=O)NC(CNC(CC(=O)NC[C@H]2CC[C@H](C(=O)N[C@H](Cc3ccc4ccccc4c3)C(=O)NCCCC[C@H](NC(=O)N[C@@H](CCC(=O)O)C(=O)O)C(=O)O)CC2)C(=O)NCCOCCOCCNC(=O)CCN2C(=O)C=CC2=O)Cc2ccccc2)CC1.[64Cu+2] (stereo partly drawn) [^64Cu-PSMA-CM]
highest uptake value in PSMA (+) 22Rv1 cells (PSMA (+) 22Rv1 cells): 5.45 ± 0.42 IA%/10^6 cells
uptake in 22Rv1 cells (PSMA (+) 22Rv1 cells): 5.45 ± 0.42 %IA/10^6 cells
uptake in 22Rv1 cells blocked by ZJ-43 (PSMA (+) 22Rv1 cells; co-incubated with ZJ-43 (1 µg/well)): 3.38 ± 0.04 IA%/10^6 cells
uptake in PSMA (−) PC-3 cells (PSMA (−) PC-3 cells; 120 min): 1.79 ± 0.20 IA%/10^6 cells
blocking of uptake in PC-3 cells by excess of ZJ-43 (PSMA (−) PC-3 cells; p > 0.05): cannot be blocked

From publication PMC9143078, “An Albumin-Binding PSMA Ligand with Higher Tumor Accumulation for PET Imaging of Prostate Cancer” (Pharmaceuticals, 2022)
